Literature values, collected in publication PMC12264960, “siRNA Interaction and Transfection Properties of Polycationic Phosphorus Dendrimers” (Biomacromolecules, 2025).

How the values were obtained:
[1] = test system: translation in the eukaryotic system; parameters: method as in earlier work; conditions: ref [4]
[2] = test system: translation in the prokaryotic system; parameters: method as in earlier work; conditions: ref [4]

In the case of `NC1C(OCOC2C(N)[C@H](O[C@H]3C(N)C[C@H](N)C(O)C3O)OC(CO)[C@@H]2O)[C@H](O)C(CO)O[C@@H]1O[C@@H]1C(N)C[C@@H](N)C(O)C1O` (some centres unmarked) [NB33], the “fold better inhibitor of translation compared to apramycin” value [1] is given as 10 fold and the “times weaker inhibitor of translation compared to apramycin” value [2] is given as 22 times.
